The values below come from article PMC8409973, “Synthesis, antiproliferative and antitrypanosomal activities, and DNA binding of novel 6-amidino-2-arylbenzothiazoles” (Journal of Enzyme Inhibition and Medicinal Chemistry, 2021).

Where a name gives a salt, the structure may show the parent alone.

Data set [1] relates to MCF-7 (human breast adenocarcinoma). The data set can be described thus: Proliferation assay (MTT, 72 h) on MCF-7. The settings on record: MCF7, MCF-7, 72 h. The data set is classed as cell-based. The protocol: (§1) Human cell lines SW620 (colorectal adenocarcinoma, metastatic), MCF-7 (human breast adenocarcinoma), CFPAC-1 (pancreatic adenocarcinoma), HeLa (cervical carcinoma), and HFF-1 (human foreskin fibroblasts) were obtained from the American Type Culture Collection (ATCC). Cells were cultured in a humidified atmosphere at 37 °C with 5% CO2. As a growth medium, Dulbecco’s modified Eagle medium (DMEM) was used with the addition of foetal bovine serum (10%), L-glutamine (2 mM), and antibiotics: streptomycin ([…]) and penicillin (100 U/ml).
(§2) Cells were seeded onto 96-well microtiter plates at a seeding density of 3000 cells/well for carcinoma cell lines, and 5000 cells/well for normal human fibroblasts. The next day, cells were treated with test agents at five different concentrations (0.01–100 µM) and further incubated for 72 h. […] 5-Fluorouracil (5-FU, 0.384 M fluorouracilum, Pliva 500 mg/10 ml) dissolved in physiological solution was used as a positive control. Following 72 h incubation, the MTT assay was performed and measured absorbances were transformed into a percentage of cell growth as described previously. Results were obtained from three independent experiments. IC50 values were calculated using linear regression analysis (FORECAST option taking into account the concentration range of two experimental points above and below IC50).

Data set [2] relates to HFF-1 (human foreskin fibroblasts). The data set is described as follows: Proliferation assay (MTT, 72 h) on normal fibroblasts HFF-1. The data set is classed as cell-based. The settings on record: HFF-1 normal fibroblasts. The protocol:
as §1, §2

Data set [3] deals with L6 cells (a rat myoblast line). The data set can be described thus: L6 cell proliferation (cytotoxicity, resazurin). The data set is classed as cell-based. The settings on record: for IC50: 144 h, rat myoblast L6, 6 days; for SI IC50 (L6/Tb): SI = [IC50 L6 cells]/[IC50 T. brucei].
The test system of data set [4] is HeLa (cervical carcinoma). The data set is described as follows: Proliferation assay (MTT, 72 h) on HeLa. The data set is classed as cell-based. The settings on record: Homo sapiens. The method, then: as §1, §2
For data set [5], the system named is CFPAC-1 (pancreatic adenocarcinoma). The data set can be described thus: Proliferation assay (MTT, 72 h) on CFPAC-1. The data set is classed as cell-based. The settings on record: Homo sapiens, CFPAC-1, 72 h. The method, then:
as §1, §2

The subject of data set [6] is SW620 (colorectal adenocarcinoma, metastatic). The data set is described as follows: Proliferation assay (MTT, 72 h) on SW620. The data set is classed as cell-based. The settings on record: Homo sapiens, SW-620, SW620, 72 h. The protocol:
as §1, §2

For data set [7], the system named is Bloodstream form T. b. brucei (strain 221). The data set can be described thus: Antitrypanosomal screening (resazurin). The data set is classed as cell-based. The settings on record: Trypanosoma brucei; for IC90: concentration that inhibited growth by 90%, mean ± SEM; for IC50: mean of triplicate ± SEM. The protocol:
Resazurin (20 μl at 0.125 mg ml^−1) was added after 48 h, the plates were incubated for a further 16 h, and then read in a Spectramax plate reader, and data analysed using GraphPad Prism. Each drug was tested in triplicate.

Take `N=C(N)c1ccc2nc(-c3cn(-c4ccc(Cl)cc4)nn3)sc2c1` [13b, 6-Amidinium-2-[1-(4-chlorophenyl)-1H-1,2,3-triazole-4-yl]benzothiazole methanesulfonate]: the half-inhibitory concentration (IC50) came to 3.32 ± 0.01 µM in data set [1]; 0.85 ± 0.05 µM in data set [2]; 2.69 ± 0.42 µM in data set [3]; 2.74 ± 0.21 µM in data set [4]; 3.17 ± 0.11 µM in data set [5]; 3.55 ± 0.85 µM in data set [6]. Also, the IC50 in data set [7] is 0.67 ± 0.07 µM. For the same molecule, in data set [3], the “SI IC50 (L6/Tb)” value worked out at 4.0. In data set [7], this molecule returned an IC90 of 1.02 ± 0.02 µM.

As to `COc1ccc(-n2cc(COc3ccc(-c4nc5ccc(C(=N)N)cc5s4)cc3)nn2)cc1` [10c], the concentration for half-maximal inhibition (IC50) is 3.66 ± 1.49 µM in data set [1]; 0.31 ± 0.08 µM in data set [2]; less than 2 µM in data set [3]; 2.87 ± 1.24 µM in data set [4]; 3.45 ± 0.29 µM in data set [5]; 3.86 ± 0.29 µM in data set [6]. Also, the IC50 in data set [7] came to 1 ± 0.07 µM. The same molecule yielded an IC90 in data set [7] of 1.26 ± 0.02 µM.

For `COc1ccc(-n2cc(-c3nc4ccc(C(=N)N)cc4s3)nn2)cc1` [13c, 6-Amidinium-2-[1-(4-methoxyphenyl)-1H-1,2,3-triazole-4-yl]benzothiazole methanesulfonate], the IC50 in data set [1] turned out to be 4.5 ± 0.43 µM; in data set [2] it was 2.99 ± 1.17 µM; in data set [4] it was 3.64 ± 1.44 µM; in data set [5] it was 5.23 ± 0.87 µM; in data set [6] it was 5.39 ± 0.41 µM.

In the case of `CS(=O)(=O)O.c1ccc(Cn2cc(COc3nc4ccc(C5=NCCCN5)cc4s3)nn2)cc1` [12d, 6-(3,4,5,6-Tetrahydropyrimidin-1-ium-2-yl)-2-[(1-benzyl-1H-1,2,3-triazol-4-yl)methoxy]benzothiazole methanesulfonate], the melting point was 197 to 199 °C. The IC50 in data set [1] was 6.01 ± 0.53 µM. The molecule also displayed an IC50 in data set [2] of 1.74 ± 0.29 µM. This molecule yielded an IC50 in data set [4] of 8.6 ± 0.85 µM. In data set [5], the midpoint of inhibition, the IC50, lay at 23.4 ± 0.29 µM. Further, the midpoint of inhibition in data set [6], the IC50, lay at 7.94 ± 2.58 µM.

As to `CS(=O)(=O)O.c1ccc(-n2cc(COc3nc4ccc(C5=NCCCN5)cc4s3)nn2)cc1` [12a, 6-(3,4,5,6-Tetrahydropyrimidin-1-ium-2-yl)-2-[(1-phenyl-1H-1,2,3-triazol-4-yl)methoxy] benzothiazole methanesulfonate], the melting point fell in the range of 249 to 254 °C. The concentration for half-maximal inhibition (IC50) in data set [1] was determined as 3.98 ± 0.04 µM. This molecule also gave an IC50 in data set [2] of 0.44 ± 0.03 µM. It took 2.95 ± 0.38 µM to reach half-maximal inhibition in data set [4] (IC50). In data set [5], this molecule yielded an IC50 of 3.98 ± 0.29 µM. The molecule further yielded a concentration for half-maximal inhibition (IC50) in data set [6] of 4.17 ± 0.28 µM.

Molecule `CS(=O)(=O)O.c1ccc(Cn2cc(COc3nc4ccc(C5=NCCN5)cc4s3)nn2)cc1` [11d, 6-(4,5-Dihydro-1H-imidazol-3-ium-2-yl)-2[(1-benzyl-1H-1,2,3-triazol-4-yl)methoxy]benzothiazole methanesulfonate] showed a melting point of 227 to 232 °C. Moreover, in data set [1], the 50% inhibitory concentration (IC50) turned out to be 2.21 ± 1.17 µM. This molecule showed an IC50 in data set [2] of 0.18 ± 0.02 µM. In addition, the IC50 in data set [3] was less than 0.2 µM. In data set [4], this molecule displayed an IC50 of 1.4 ± 0.75 µM. The same molecule gave an IC50 in data set [5] of 1.21 ± 0.74 µM. Moreover, inhibition in data set [6] was half-maximal at 1.81 ± 0.55 µM (IC50). Moreover, in data set [7], it took 1.3 ± 0.02 µM to reach the 90% level (IC90) and it took 1.09 ± 0.02 µM to reach half-maximal inhibition (IC50).

With `N=C(N)c1ccc2nc(-c3cn(-c4ccccc4)nn3)sc2c1` [13a, 6-Amidinium-2-(1-phenyl-1H-1,2,3-triazole-4-yl)benzothiazole methanesulfonate], the IC50 is 25.6 ± 3.15 µM in data set [1]; 2.07 ± 0.13 µM in data set [2]; 7.97 ± 0.96 µM in data set [3]; 7.77 ± 0.05 µM in data set [4]; 26.6 ± 4.69 µM in data set [5]; 24.2 ± 4.31 µM in data set [6]. This molecule came in with an IC50 in data set [7] of 2.02 ± 0.1 µM. For the same molecule, the “SI IC50 (L6/Tb)” value in data set [3] came to 3.9. In data set [7], this molecule yielded an IC90 of 2.52 ± 0.34 µM.

The molecule `COc1ccc(-n2cc(COc3ccc(-c4nc5ccc(C(=N)N)cc5s4)cc3)nn2)cc1` (as salt: methanesulfonate) [10c] returned a melting point of 265 to 270 °C.

For the molecule `N=C(N)c1ccc2nc(-c3cn(-c4ccc(Cl)cc4)nn3)sc2c1` (as salt: methanesulfonate) [13b, 6-Amidinium-2-[1-(4-chlorophenyl)-1H-1,2,3-triazole-4-yl]benzothiazole methanesulfonate], the melting point is greater than 300 °C.

As for `N=C(N)c1ccc2nc(-c3cn(Cc4ccccc4)nn3)sc2c1` [13d, 6-Amidinium-2-(1-benzyl-1H-1,2,3-triazole-4-yl)benzothiazole methanesulfonate], the half-inhibitory concentration (IC50) stood at 22.6 ± 0.91 µM in data set [1]; 4.04 ± 1.35 µM in data set [2]; 14.9 ± 1.54 µM in data set [4]; 25.9 ± 3.71 µM in data set [5]; 9.48 ± 0.29 µM in data set [6].

In turn, `N=C(N)c1ccc2nc(-c3ccc(OCc4cn(-c5ccc(Cl)cc5)nn4)cc3)sc2c1` (as salt: methanesulfonate) [10b] yielded a melting point of 276 to 279 °C.

Take `N=C(N)c1ccc2nc(-c3ccc(OCc4cn(-c5ccccc5)nn4)cc3)sc2c1` (as salt: methanesulfonate) [10a]: the melting point lay within 272 to 275 °C.

Consider `N=C(N)c1ccc2nc(-c3ccc(OCc4cn(Cc5ccccc5)nn4)cc3)sc2c1` (as salt: methanesulfonate) [10d], for which the melting point was 253 to 257 °C.

Consider `N=C(N)c1ccc2nc(-c3ccc(OCc4cn(-c5ccccc5)nn4)cc3)sc2c1` [10a], for which the half-inhibitory concentration (IC50) in data set [1] was 3.39 ± 1.17 µM; in data set [2] it was 0.17 ± 0.04 µM; in data set [3] it was less than 2 µM; in data set [4], 2.89 ± 0.11 µM; in data set [5], 3.34 ± 0.19 µM; in data set [6], 2.89 ± 0.03 µM. For the same molecule, half-maximal inhibition in data set [7] (IC50) was put at 1.17 ± 0.1 µM. The molecule also yielded a 90% effect concentration (IC90) in data set [7] of 1.45 ± 0.11 µM.

Take `COc1ccc(-n2cc(-c3nc4ccc(C5=NCCCN5)cc4s3)nn2)cc1.CS(=O)(=O)O` [15c, 6-(3,4,5,6-Tetrahydropyrimidin-1-ium-2-yl)-2-[1-(4-methoxyphenyl)-1H-1,2,3-triazole-4-yl]benzothiazole methanesulfonate]: the melting point lay within 261 to 265 °C. Moreover, it took 4.28 ± 0.06 µM to reach half-maximal inhibition in data set [1] (IC50). Moreover, in data set [2], the IC50 was 1.33 ± 0.17 µM. The molecule also had an IC50 in data set [4] of 4.3 ± 0.41 µM. In addition, it took 4.74 ± 0.14 µM to reach half-maximal inhibition in data set [5] (IC50). In data set [6], this molecule returned an IC50 of 4.07 ± 1.06 µM.

`N=C(N)c1ccc2nc(-c3ccc(OCc4cn(Cc5ccccc5)nn4)cc3)sc2c1` [10d]: the IC50 in data set [1] came to 3.02 ± 0.98 µM; in data set [2] it was 0.76 ± 0.18 µM; in data set [4], 1.77 ± 0.45 µM; in data set [5], 5.15 ± 0.23 µM; in data set [6] it was 1.18 ± 0.18 µM.

`COc1ccc(-n2cc(-c3nc4ccc(C(=N)N)cc4s3)nn2)cc1` (as salt: methanesulfonate) [13c, 6-Amidinium-2-[1-(4-methoxyphenyl)-1H-1,2,3-triazole-4-yl]benzothiazole methanesulfonate] returned a melting point greater than 300 °C.

Consider `N=C(N)c1ccc2nc(-c3cn(-c4ccccc4)nn3)sc2c1` (as salt: methanesulfonate) [13a, 6-Amidinium-2-(1-phenyl-1H-1,2,3-triazole-4-yl)benzothiazole methanesulfonate], for which the melting point was 289 to 293 °C.

For the molecule `CS(=O)(=O)O.c1ccc(Cn2cc(-c3nc4ccc(C5=NCCCN5)cc4s3)nn2)cc1` [15d, 6-(3,4,5,6-Tetrahydropyrimidin-1-ium-2-yl)-2-(1-benzyl-1H-1,2,3-triazole-4-yl)benzothiazole methanesulfonate], the melting point was 170 to 174 °C. Moreover, the IC50 in data set [1] is 40.6 ± 10.6 µM. Besides, in data set [2], the half-inhibitory concentration (IC50) came out at 18.9 ± 0.19 µM. Further, 31 ± 4.5 µM corresponded to half-maximal inhibition in data set [4] (IC50). Moreover, the IC50 in data set [5] came out at 49.9 ± 12.5 µM. Moreover, in data set [6], the half-maximal inhibitory concentration (IC50) was 31.9 ± 8.38 µM.

`CS(=O)(=O)O.c1ccc(-n2cc(-c3nc4ccc(C5=NCCCN5)cc4s3)nn2)cc1` [15a, 6-(3,4,5,6-Tetrahydropyrimidin-1-ium-2-yl)-2-(1-phenyl-1H-1,2,3-triazole-4-yl)benzothiazole methanesulfonate]: the melting point was in the range of 269 to 274 °C. In data set [1], this molecule came in with an IC50 of 8.31 ± 0.12 µM. Further, in data set [2], the IC50 was determined as 0.53 ± 0.1 µM. Also, the half-maximal inhibitory concentration (IC50) in data set [4] was determined as 7.62 ± 0.84 µM. In addition, inhibition in data set [5] was half-maximal at 37.6 ± 4.58 µM (IC50). For the same molecule, in data set [6], the half-maximal inhibitory concentration (IC50) worked out at 4.15 ± 1.58 µM.

For the molecule `N=C(N)c1ccc2nc(-c3cn(Cc4ccccc4)nn3)sc2c1` (as salt: methanesulfonate) [13d, 6-Amidinium-2-(1-benzyl-1H-1,2,3-triazole-4-yl)benzothiazole methanesulfonate], the melting point lay in the range of 262 to 267 °C.
